# Key:
# [1] = Hygroscopicity, moisture sorption on VTI instrument SGA 100; details: for level of hygroscopicity / weight increase of the compound (moisture): 25 °C; for hygroscopicity of the solid form (general statement): hydrochloride
# Source text: There were 24 Relative Humidity steps used. The Relative Humidity at each step is as follows.
# [2] = Solubility in bio-relevant media; type: physicochemical
# [3] = Chemical stability of solid form; type: physicochemical; details: compared with free acid and other salt forms, including the amorphous hydrochloride form
"level of hygroscopicity ([1]; amorphous form, dried at 60 °C, 19 relative humidity steps)","weight increase of the compound (moisture) ([1]; amorphous form, dried at 60 °C, 19 relative humidity steps, 0 to 90)",hygroscopicity of the solid form (general statement) [1],solubility in bio-relevant media [2],chemical stability [3],"level of hygroscopicity ([1]; crystalline form, no drying, 24 relative humidity steps)","weight increase of the compound (moisture) ([1]; crystalline form, no drying, 24 relative humidity steps, 5 to 90)",Compound
high level of hygroscopicity,more than 18 % w/w,hygroscopic,,,,,Cl.Cn1ncc(Cl)c1-c1cc(C(=O)N[C@H](CN)Cc2cccc(F)c2)sc1Cl [Example 3]
,,non-hygroscopic,good solubility,improved chemical stability,low level of hygroscopicity,less than 1 % w/w,Cl.Cn1ncc(Cl)c1-c1cc(C(=O)N[C@H](CN)Cc2cccc(F)c2)sc1Cl [Compound A]
